{"source": "patent US9566290B2", "about": "“Boron-containing small molecules” (Anacor Pharmaceuticals, Inc., priority 2005, dated 2017)", "key": {"[1]": {"tested_on": "Saccharomyces cerevisiae strain ATCC 201388", "assay": "MIC (NCCLS M27, YPD or synthetic defined media), haploid parental strain", "format": "cell-based", "conditions": "Saccharomyces cerevisiae, read-out: MIC", "experimental": "The haploid Saccharomyces cerevisiae strain ATCC 201388 was used in the selection of C10 resistant mutants. Spontaneous and EMS-induced resistant mutants were isolated from YPD agar plates containing 4×, 8×, 16×MIC of C10. All minimal inhibitory concentrations (MIC) were determined using NCCLS protocol M27 with the exception of using YPD or synthetic defined media. All yeast and molecular genetic manipulations were essentially performed as described by Guthrie C., et al., Methods in Enzymology, 350: Part B, (2002).\nThe minimal inhibitory concentration (MIC) was essentially performed following the NCCLS guidelines outlined in the M27 protocol with the exception of using YPD or synthetic defined media (SDM)."}, "[2]": {"assay": "Water solubility (table of physicochemical properties)"}, "[3]": {"tested_on": "S. cerevisiae strain ATCC201388", "assay": "Frequency of spontaneous resistance", "format": "cell-based, Saccharomyces cerevisiae", "conditions": "spontaneous mutants, at 4×MIC", "experimental": "Resistant mutants appeared after 2 d incubation at 30° C. Frequency of resistance was determined by dividing the number of resistant mutants by the total number of cells plated as determined by plating dilutions of the overnight culture on YPD plates."}, "T. rubrum": {"tested_on": "T. rubrum", "assay": "Minimum fungicidal concentration (MFC)", "format": "cell-based", "conditions": "Trichophyton rubrum, lowest concentration that killed over 90%", "excerpt": "(§1) (C10) is a novel compound in development for use as a topical antifungal treatment. The purpose of this study was to determine the minimum inhibitory concentration (MIC) for (C10) against 19 test strains of fungi including: Aspergillus fumigatus (A. fumigatus), Candida Albicans (C. albicans, both fluconazole sensitive and resistant strains), Candida glabrata (C. glabrata), Candida krusei (C. krusei), Cryptococcus neoformans (C. neoformans), Candida parapsilosis (C. parapsilosis), Candida tropicalis (C. tropicalis), Epidermophyton floccosum (E. floccosum), Fusarium solani (F. solani), Malassezia furfur (M. furfur), Malassezia pachydermatis (M. pachydermatis), Malassezia sympodialis (M. sympodialis), Microsporum audouinii (M. audouinii), Microsporum canis (M. canis), Microsporum gypseum (M. gypseum), Trichophyton mentagrophytes (T. mentagrophytes), Trichophyton rubrum (T. rubrum), Trichophyton tonsurans (T. tonsurans). Fungal growth was evaluated after exposure to different concentrations of (C10). In addition, the MIC for (C10) against T. rubrum in the presence of 5% keratin powder and the minimum fungicidal concentration (MFC) for (C10) against T. rubrum and T. mentagrophytes were also determined. Ciclopirox and/or terbinafine and/or fluconazole and/or itraconazole were used as comparators and tested in a similar manner. These studies were conducted at NAEJA Pharmaceutical, Inc. […]"}, "T. mentagrophytes": {"tested_on": "T. mentagrophytes", "assay": "Minimum fungicidal concentration (MFC)", "format": "cell-based", "conditions": "Trichophyton mentagrophytes, lowest concentration that killed over 90%", "excerpt": "as §1"}, "[4]": {"tested_on": "Trichophyton rubrum (T. rubrum)", "assay": "TurChub zone of inhibition assay through full thickness human nail", "format": "cell-based", "conditions": "40 μL/cm^2 per day over five days", "experimental": "The aim of the current study was to assess and compare the perungual absorption of C10 in a simple vehicle using MedPharm's TurChub® model (see http://www.medpharm.co.uk; specificaly http://www.medpharm.co.uk/downloads/Skin%20and%20nail%2dec%202003.pdf viewed Feb. 14, 2006). in a full scale experiment. Six replicates involving C10 were conducted and Formulations Y (8% ciclopirox w/w in commercial lacquer) and Z (Loceryl, 5% amorolfine w/v in commercial lacquer) were used as the reference formulations.\nA dose of 40 μL/cm^2 of the test compound C10 in 50:50 propylene glycol:ethyl acetate was applied to a full thickness nail sample each day over a total duration of five days. Both the reference formulations were also applied at the same dose.\nPlacebo, test item C10 in vehicle and the reference formulations Y and Z were tested for their inhibition of Trichophyton rubrum (T. rubrum) growth after penetration through a full thickness human nail using a zone of inhibition measurement."}, "[5]": {"assay": "Stability at room temperature in water and octanol", "format": "physicochemical", "experimental": "C10 (10 μL of 5000 μg/mL) was added both to 0.5 mL n-octanol and 0.5 mL water in triplicate. Samples were mixed. At 0 h and 24 h samples were stored at ca. −20° C. Twenty five L of sample was used for analysis.\nFor the octanol sample, 25 μL of ethanol, 25 μL of water and 300 μL of acetonitrile containing the internal standard was added. For the water sample, 25 μL of ethanol, 25 μL of octanol and 300 μL of acetonitrile containing the internal standard [60 mL of acetonitrile add 6 μL of PNP (1000 μg/mL)] was added. For the calibrators 25 μL of octanol, 25 μL of water and 300 μL of acetonitrile containing the internal standard was added. The sample was vortexed for 10 seconds. Two hundred μL of the organic layer were transferred into a clean deactivated autosampler vial.\nA 1/concentration weighted linear regression was used for the quantitation of C10. All integration were performed with peak areas using Analyst version 1.3, Applied Biosystems. For C10, peak area ratios analyte to internal standard PNP were used for all quantitation."}, "19 test strains of fungi": {"tested_on": "19 test strains of fungi", "assay": "Antifungal MIC, microbroth dilution (NCCLS)", "format": "cell-based", "conditions": "MIC = over 90% reduction of growth, read-out: MIC values against all fungi tested", "excerpt": "as §1"}}, "note": "Where “and” joins values, the source holds several entries; their conditions need not be identical. Equal entries are not always repeated. Where two headings read alike, the source gives them in different places.", "data": [{"smiles": "OB1OCc2cc(F)ccc21", "note": "[C10, 5-fluorobenzo[c][1,2]oxaborol-1(3H)-ol]", "values": [{"measurement": "MIC", "setting": "[1]; ATCC201388, Table 1, haploid strain ATCC201388", "value": 0.5, "unit": "µg/mL"}, {"measurement": "MIC", "setting": "[1]; ATCC201388, Table 2, ATCC201388", "value": 0.5, "unit": "µg/mL"}, {"measurement": "solubility", "setting": "[2]", "value": "> 100", "unit": "µg/mL"}, {"measurement": "frequency of resistance", "setting": "[3]", "value": "1.2×10^−7"}, {"measurement": "MFC", "setting": "T. rubrum", "value": 8, "unit": "µg/mL"}, {"measurement": "MFC", "setting": "T. mentagrophytes", "value": 16, "unit": "µg/mL"}, {"measurement": "zone of inhibition, result in words", "setting": "[4]; full thickness nail", "value": "superior results vs. the commercial reference formulations Y and Z"}, {"measurement": "Zones of inhibition", "setting": "[4]; C10 10% w/v solution, second experiment (FIG. 7), six cells", "value": "74% and 86% and 100% and 82% and 84%"}, {"measurement": "stability in pure water and octanol, in words", "setting": "[5]; 24 h, without continuous mixing", "value": "stable over 24 h"}, {"measurement": "Percent Remaining 24 h versus 0 g", "setting": "[5]; Octanol", "value": 93, "unit": "%"}, {"measurement": "Mean", "setting": "[5]; Octanol, 0 h", "value": 115, "unit": "µg/mL"}, {"measurement": "Mean", "setting": "[5]; Octanol, 24 h", "value": 107, "unit": "µg/mL"}, {"measurement": "Percent Remaining 24 h versus 0 g", "setting": "[5]; Water", "value": 115, "unit": "%"}, {"measurement": "Mean", "setting": "[5]; Water, 0 h", "value": 82.5, "unit": "µg/mL"}, {"measurement": "Mean", "setting": "[5]; Water, 24 h", "value": 95.0, "unit": "µg/mL"}, {"measurement": "MIC", "setting": "19 test strains of fungi", "value": "0.25 to 2", "unit": "µg/mL"}]}]}
